“And” between values parts separate entries of the source, which are not always exact repeats. Equal values may be shown once.
Key:
[1] = absorption spectrum (maximum absorption wavelength, molar extinction coefficient); assay type: physicochemical
[2] = singlet oxygen efficiency test, reference rose bengal; assay type: physicochemical

| SMILES | maximum absorption wavelength [1] | molar extinction coefficient [1] | singlet oxygen yield [2] [%] |
| --- | --- | --- | --- |
| COc1c2c3c4c(c(NCC5CCC(C(=O)NCCCC[P+](c6ccccc6)(c6ccccc6)c6ccccc6)CC5)c(=O)c5c(O)cc(OC)c(c6c(OC)cc(NCC7CCC(C(=O)NCCCC[P+](c8ccccc8)(c8ccccc8)c8ccccc8)CC7)c(c1=O)c63)c54)C=C(C)C2 (stereo not drawn) [HC-13d-NH—C4-PPh3+] | 618 nm | 31,500 M^−1cm^−1 | 30 |
| COCCOCCOCCOCCOCCOCCOCCC(=O)OCC1(Nc2c3c4c5c(c(OC)c(=O)c6c(O)cc(OC)c(c7c(OC)cc(NC8(COC(=O)CCOCCOCCOCCOCCOCCOCCOC)CC8)c(c2=O)c74)c65)C(C(C)=O)C(C)=C3)CC1 (stereo not drawn) [HB-35c-PEG6] | 630 nm | 33,500 M^−1cm^−1 | 38 |
| COCCOCCOCCOCCOCCOCCOC(=O)C1CCCCC1Nc1c2c3c4c(c(OC)c(=O)c5c(NC6CCCCC6C(=O)OCCOCCOCCOCCOCCOCCOC)cc(OC)c(c6c(OC)cc(O)c(c1=O)c63)c54)C(C(C)=O)C(C)=C2 (stereo not drawn) [HB-16d-PEG6] | 628 nm | 32,000 M^−1cm^−1 | 33 |
| COc1c2c3c4c(c(NCC[N+]56CC[N+](C)(CC5)CC6)c(=O)c5c(O)cc(OC)c(c6c(OC)cc(NCC[N+]78CC[N+](C)(CC7)CC8)c(c1=O)c63)c54)C=C(C)C2C(C)=O (stereo not drawn) [HB-41d] | 625 nm | 30,500 M^−1cm^−1 | 28 |
| COCCOCCOCCOCCOCCOCCOCCC(=O)N1CCC(CNc2c(O)c3c(=O)c(Br)c(OC)c4c5c(OC)cc(=O)c6c(NCC7CCN(C(=O)CCOCCOCCOCCOCCOCCOCCOC)CC7)c(OC)c7c(c(c2C=C(C)C7C(C)=O)c34)c65)CC1 (stereo not drawn) [HB-31b-Br-PEG6] | 624 nm | 31,500 M^−1cm^−1 | 31 |
| COc1c(NCCNCCOCCOCCOCCOCCO)c2c(=O)cc(OC)c3c4c(OC)cc(=O)c5c(O)c(NCCNCCOCCOCCOCCOCCO)c6c(c(c1C(C(C)=O)C(C)=C6)c23)c54 (stereo not drawn) [HB-5b-PEG4] | 625 nm | 30,500 M^−1cm^−1 | 31 |
| COc1c(O)c2c(=O)cc(OC)c3c4c(OC)cc(=O)c5c(NCCNCCOCCO)c(NCCNCCOCCO)c6c(c(c1C(C(C)=O)C(C)=C6)c23)c54 (stereo not drawn) [HB-5a-PEG1] | 622 nm | 29,500 M^−1cm^−1 | 28 |
| COc1c(O)c2c(=O)cc(OC)c3c4c(OC)cc(=O)c5c(NCCO)c(NCCO)c6c(c(c1C(C(C)=O)C(C)=C6)c23)c54 (stereo not drawn) [HB-2a] |  |  | 28 |
| COCCOCCN1CCC(CNc2c(NCC3CCN(CCOCCOC)CC3)c3c(=O)cc(OC)c4c5c(OC)cc(=O)c6c(O)c(OC)c7c(c(c2C=C(C)C7C(C)=O)c34)c65)CC1 (stereo not drawn) [HB-32a-PEG1] | 622 nm | 32,000 M^−1cm^−1 | 32 |
| COc1c2c3c4c(c(NC5CCC(C(=O)O)CC5)c(=O)c5c(NC6CCC(C(=O)O)CC6)cc(OC)c(c6c(OC)cc(O)c(c1=O)c63)c54)C=C(C)C2C(C)=O (stereo not drawn) [HB-14c] | 621 nm | 28,000 M^−1cm^−1 | 26 |
| COc1c2c3c4c(c(NCC(=O)O)c(=O)c5c(O)cc(OC)c(c6c(OC)cc(NCCCC(=O)O)c(c1=O)c63)c54)C=C(C)C2C(C)=O (stereo not drawn) [HB-43d] | 623 nm | 26,500 M^−1cm^−1 | 24 |
| COCCOCCOCCOCCOCCOCCOCCOCCOCCNC(=O)C1CCC(CNc2c3c4c5c(c(OC)c(=O)c6c(O)cc(OC)c(c7c(OC)cc(NCC8CCC(C(=O)NCCOCCOCCOCCOCCOCCOCCOCCOCCOC)CC8)c(c2=O)c74)c65)C(C(C)=O)C(C)=C3)CC1 (stereo not drawn) [HB-13c-NH-PEG8] | 630 nm | 33,500 M^−1cm^−1 | 39 |
| COc1c(NCCCC(=O)O)c2c(=O)cc(OC)c3c4c(OC)cc(=O)c5c(O)c(NCC(=O)O)c6c(c(c1C(C(C)=O)C(C)=C6)c23)c54 (stereo not drawn) [HB-43b] | 618 nm | 26,000 M^−1cm^−1 | 25 |
| COC(=O)C1CCC(CNc2c(O)c3c(=O)cc(OC)c4c5c(OC)cc(=O)c6c(NCC7CCC(C(=O)OC)CC7)c(OC)c7c(c(c2C=C(C)C7C(C)=O)c34)c65)CC1 (stereo not drawn) [HB-13b-AcE] | 623 nm | 27,000 M^−1cm^−1 | 24 |
| COCCOCCOCCOCCOCCOCCOCCC(=O)OCC1(Nc2c(O)c3c(=O)cc(OC)c4c5c(OC)cc(=O)c6c(NC7(COC(=O)CCOCCOCCOCCOCCOCCOCCOC)CC7)c(OC)c7c(c(c2C=C(C)C7C(C)=O)c34)c65)CC1 (stereo not drawn) [HB-35b-PEG6] | 624 nm | 30,500 M^−1cm^−1 | 32 |
| CCNc1c(O)c2c(=O)cc(OC)c3c4c(OC)cc(=O)c5c(NC6CCCC6)c(OC)c6c(c(c1C=C(C)C6C(C)=O)c23)c54 (stereo not drawn) [HB-44b] | 621 nm | 21,000 M^−1cm^−1 | 18 |

| SMILES | maximum absorption wavelength [1] | molar extinction coefficient [1] | singlet oxygen yield [2] [%] |
| --- | --- | --- | --- |
| COC(=O)C1CCC(CNc2c(NCC3CCC(C(=O)OC)CC3)c3c(=O)cc(OC)c4c5c(OC)cc(=O)c6c(O)c(OC)c7c(c(c2C=C(C)C7C(C)=O)c34)c65)CC1 (stereo not drawn) [HB-13a-AcE] | 625 nm | 27,000 M^−1cm^−1 | 25 |
| COc1c(NCCCCS(=O)(=O)O)c2c(=O)cc(OC)c3c4c(OC)cc(=O)c5c(O)c(NCCCCS(=O)(=O)O)c6c(c(c1C(C(C)=O)C(C)=C6)c23)c54 (stereo not drawn) [HB-11b-C4-SO3H] | 620 nm | 30,500 M^−1cm^−1 | 34 |
| COc1c(O)c2c(=O)cc(OC)c3c4c(OC)cc(=O)c5c(NCc6cccc[n+]6CCCC(=O)O)c(NCc6cccc[n+]6CCCC(=O)O)c6c(c(c1C(C(C)=O)C(C)=C6)c23)c54 (stereo not drawn) [HB-38a-N—COOH] | 620 nm | 22,000 M^−1cm^−1 | 20 |
| CCNc1c2c3c4c(c(OC)c(=O)c5c(NC6CCCC6)cc(OC)c(c6c(OC)cc(O)c(c1=O)c63)c54)C(C(C)=O)C(C)=C2 (stereo not drawn) [HB-44d] | 622 nm | 21,500 M^−1cm^−1 | 21 |
| COCCOC(=O)C1CCC(CNc2c(NCC3CCC(C(=O)OCCOC)CC3)c3c(=O)cc(OC)c4c5c(OC)cc(=O)c6c(O)c(OC)c7c(c(c2C=C(C)C7)c34)c65)CC1 (stereo not drawn) [HC-13a-PEG1] | 622 nm | 30,000 M^−1cm^−1 | 32 |
| COc1c2c3c4c(c(NC(CC(=O)O)C(=O)O)c(=O)c5c(O)cc(OC)c(c6c(OC)cc(NC(CC(=O)O)C(=O)O)c(c1=O)c63)c54)C=C(C)C2C(C)=O (stereo not drawn) [HB-27d] | 620 nm | 21,500 M^−1cm^−1 | 18 |
| COCCOCCC(=O)N1CCC(CNc2c(NCC3CCN(C(=O)CCOCCOC)CC3)c3c(=O)c(Br)c(OC)c4c5c(OC)cc(=O)c6c(O)c(OC)c7c(c(c2C=C(C)C7C(C)=O)c34)c65)CC1 (stereo not drawn) [HB-31a-Br-PEG1] | 624 nm | 32,000 M^−1cm^−1 | 33 |
| COCCOCCOCCOCCOCCOCCOC(=O)C1CCCC(Nc2c(O)c3c(=O)cc(OC)c4c5c(OC)cc(=O)c6c(NC7CCCC(C(=O)OCCOCCOCCOCCOCCOCCOC)C7)c(OC)c7c(c(c2C=C(C)C7C(C)=O)c34)c65)C1 (stereo not drawn) [HB-15b-PEG6] | 624 nm | 30,000 M^−1cm^−1 | 34 |
| COc1c(NCCCC(=O)NCCCCS(=O)(=O)O)c2c(=O)cc(OC)c3c4c(OC)cc(=O)c5c(O)c(NCCCC(=O)NCCCCS(=O)(=O)O)c6c(c(c1CC(C)=C6)c23)c54 [HC-8b-NH—C4-SO3H] | 624 nm | 31,500 M^−1cm^−1 | 33 |
| COc1c2c3c4c(c(NCCNCCOCCOCCOCCOCCO)c(=O)c5c(NCCNCCOCCOCCOCCOCCO)c(Br)c(OC)c(c6c(OC)cc(O)c(c1=O)c63)c54)C=C(C)C2C(C)=O (stereo not drawn) [HB-5c-Br-PEG4] | 630 nm | 31,500 M^−1cm^−1 | 36 |
| COCCOC(=O)C1CCCC(Nc2c(NC3CCCC(C(=O)OCCOC)C3)c3c(=O)cc(OC)c4c5c(OC)cc(=O)c6c(O)c(OC)c7c(c(c2C=C(C)C7C(C)=O)c34)c65)C1 (stereo not drawn) [HB-15a-PEG1] | 624 nm | 30,000 M^−1cm^−1 | 30 |
| COc1c2c3c4c(c(NCC5CCC(C(=O)NCCCCS(=O)(=O)O)CC5)c(=O)c5c(O)cc(OC)c(c6c(OC)cc(NCC7CCC(C(=O)NCCCCS(=O)(=O)O)CC7)c(c1=O)c63)c54)C=C(C)C2 (stereo not drawn) [HC-13d-C4-SO3H] | 624 nm | 31,000 M^−1cm^−1 | 30 |
| COc1c2c3c4c(c(NCc5cccc[n+]5CCCC(=O)O)c(=O)c5c(O)cc(OC)c(c6c(OC)cc(NCc7cccc[n+]7CCCC(=O)O)c(c1=O)c63)c54)C=C(C)C2C(C)=O (stereo not drawn) [HB-38d-N—COOH] | 626 nm | 21,000 M^−1cm^−1 | 20 |
| COc1c2c3c4c(c(NCC(=O)O)c(=O)c5c(O)cc(OC)c(c6c(OC)cc(NCC(=O)O)c(c1=O)c63)c54)C=C(C)C2 [HC-7d] | 626 nm | 26,000 M^−1cm^−1 | 25 |
| COCCOCCOCCOCCOCCOCCOC(=O)C1CCC(Nc2c3c4c5c(c(OC)c(=O)c6c(NC7CCC(C(=O)OCCOCCOCCOCCOCCOCCOC)CC7)cc(OC)c(c7c(OC)cc(O)c(c2=O)c74)c65)C(C(C)=O)C(C)=C3)CC1 (stereo not drawn) [HB-14d-PEG6] | 630 nm | 31,500 M^−1cm^−1 | 32 |
| C=CC1=C(C)c2cc3[nH]c(cc4[nH]c(cc5nc(cc1n2)C(C)=C5C=C)c(C)c4CCC(=O)O)c(CCC(=O)O)c3C [PpIX, reference compound] | 570 nm and 630 nm | less than 10000 M^−1cm^−1 |  |

Source: patent US11439707B2, “Hypocrellin derivative substituted both in a peri-position and in 2-position by amino, preparation method, and application thereof” (priority 2017, dated 2022)
